≈ marks a conversion by molar mass, not a printed value.
Columns and labels:
[1] = tested on: E. coli ATCC 25922; assay: Minimum inhibitory concentration (MIC) assay, broth microdilution; format: cell-based; conditions: Escherichia coli, ATCC25922, Mueller-Hinton II broth, 37° C., 18 to 24 hours, lowest concentration that inhibited visible growth
Experimental: (§1) The antimicrobial activity of the compounds of the invention may be evaluated by a number of methods, including the following visual minimum inhibitory concentration (MIC) assay. This assay determines the minimum concentration of compound required to inhibit growth of a bacterial strain. Minimum Inhibitory Concentration (MIC) Assay Whole-cell antibacterial activity is determined by broth microdilution using conditions recommended by the NCCLS (see National Committee for Clinical Laboratory Standards. 2001. Performance standards for antimicrobial susceptibility testing: 11th informational supplement. Vol. 21, no. 1, M100-S11. National Committee for Clinical Laboratory Standards, Wayne, Pa.). Test compounds are dissolved in DMSO and diluted 1:50 in Mueller-Hinton II broth (Becton-Dickinson) to produce a 256 μg/ml stock solution. In a 96-well microtiter plate, the compound solution is serially two-fold diluted in Mueller-Hinton II broth. After the compounds are diluted, a 50 μl aliquot of the test organism (˜1×10^6 cfu/mL) is added to each well of the microtiter plate. The final test concentrations ranges from 0.125-128 μg/mL. Inoculated plates are incubated in ambient air at 37° C. for 18 to 24 hours. The organisms selected for testing included laboratory strains S. aureus ATCC 29213 and E. coli ATCC 25922 (strains purchased from American Type Culture Collection, Manassas, Va.). The minimum inhibitory concentration (MIC) is determined as the lowest concentration of compound that inhibited visible growth of the test organism.

[2] = tested on: S. aureus ATCC 29213; assay: as above; format: cell-based; conditions: Staphylococcus aureus, ATCC29213, Mueller-Hinton II broth, 37° C., 18 to 24 hours, lowest concentration that inhibited visible growth
Experimental: as §1

SMILES | MIC [1] [µg/mL] | MIC [2] [µg/mL]
CO/N=C1\CN(c2c(F)cc3c(=O)c4c(=O)[nH]sc4n(C4CC4)c3c2OC)CC1CN (stereo not drawn) [Compound 39, 7-(3-Aminomethyl-4-methoxyimino-pyrrolidin-1-yl)-9-cyclopropyl-6-fluoro-8-methoxy-9H-isothiazolo[5,4-b]quinoline-3,4-dione] | 0.125 (≈ 0.279 µM) | < 0.05
CO/N=C1\CN(c2cc3c(cc2F)c(=O)c2c(=O)[nH]sc2n3C2CC2)CC1(C)CN (stereo not drawn) [Compound 27] | < 0.05 | < 0.05
CO/N=C1\CN(c2cc3c(cc2F)c(=O)c2c(=O)[nH]sc2n3C2CC2)CC1CO (stereo not drawn) [Compound 41, 9-Cyclopropyl-6-fluoro-7-(3-hydroxymethyl-4-methoxyimino-pyrrolidin-1-yl)-9H-isothiazolo[5,4-b]quinoline-3,4-dione] | < 0.1 | < 0.05
CON=C1CCN(c2cc3c(cc2F)c(=O)c2c(=O)[nH]sc2n3C2CC2)CC1 [Compound 32, 9-Cyclopropyl-6-fluoro-7-(4-methoxyimino-piperidin-1-yl)-9H-isothiazolo[5,4-b]quinoline-3,4-dione] | < 0.05 | < 0.05
CO/N=C1\CN(c2cc3c(cc2F)c(=O)c2c(=O)[nH]sc2n3C2CC2)CC1CN (stereo not drawn) [Compound 13] | < 0.05 | 0.05 (≈ 0.12 µM)
CO/N=C1\CN(c2nc3c(cc2F)c(=O)c2c(=O)[nH]sc2n3C2CC2)CC1CN (stereo not drawn) [Compound 42, 7-(3-Aminomethyl-4-methoxyimino-pyrrolidin-1-yl)-9-cyclopropyl-6-fluro-9H-1-thia-2,8,9-triaza-cyclopenta[b]naphtalene-3,4-dione] | < 0.125 | < 0.1

Reference: patent US20060100215A1, “8A,9-dihydro-4aH-isothiazolo[5,4-b]quinoline-3,4-diones and related compounds as anti-infective agents” (priority 2004, published 2006)
